Experiment in all cases: NCI anticancer screen, dose series, 48 h
The subject of test [1] is NCI-H522.
Test [2] has as its system UACC-257.
The test system of test [3] is U-251.
The subject of test [4] is SW-620.
Test [5] has as its system RPMI-8226.
Test [6] concerns SNB-75.
The subject of test [7] is SK-MEL-5.
Test [8] relates to SNB-19.
The subject of test [9] is OVCAR-4.
Test [10] deals with SK-MEL-2.
Test [11] relates to SF-295.
Test [12] concerns EKVX.
In test [13] the test system is LOX IMVI.
Test [14] deals with NCI-H460.
Test [15] concerns OVCAR-8.
For test [16], the system named is UACC-62.
Test [17] relates to K562.
The test system of test [18] is M14.
In test [19] the test system is SN12C.
The subject of test [20] is A549.

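Five compound concentrations were applied to cells in 96-well plates for 48 hours; endpoints were derived by simple linear interpolation of the resulting dose-response curve. GI50 is the concentration that inhibits growth by half.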 Calls of active or inactive are those of the source. Rule as the data show it: active = GI50 up to about 1.1 µM and inactive = higher.

For `O=[N+]([O-])/C(C(Cl)=C(Cl)Cl)=C(\N1CCCCC1)n1cncn1`, the GI50 in test [1] was 15.6 µM (inactive); in [2], 17.5 µM (inactive); in test [3], 13.3 µM (inactive); in test [4], 15.8 µM (inactive); in test [5], 19.1 µM (inactive); in [6], 23 µM (inactive). The GI50 in test [7] is 12.6 µM (inactive); in [8], 17.7 µM (inactive); in test [9], 18.6 µM (inactive); in test [10], 18 µM (inactive); in test [11] it was 17.1 µM (inactive); in [12] it was 15.8 µM (inactive). In addition, the GI50 in test [13] was 15.1 µM (inactive); in [14], 26.2 µM (inactive); in test [15], 19.5 µM (inactive); in [16], 15.2 µM (inactive); in [17] it was > 46 µM (inactive); in [18], 17.2 µM (inactive). Also, the GI50 was 17.5 µM (inactive) in [19] and 19.7 µM (inactive) in [20].
Take `c1c2c(cc3c1OCO3)-c1cc3ccc4c(c3c[n+]1CC2)OCO4` [COPTISINE CHLORIDE]: the GI50 in test [1] was 0.311 µM (active); in [2], 1.95 µM (inactive); in test [3], 0.935 µM (active); in test [4] it was 0.462 µM (active); in test [5], 0.711 µM (active); in test [6] it was 1.28 µM (inactive). The GI50 in test [7] was 0.587 µM (active); in test [8] it was 1.22 µM (inactive); in [9], 5.09 µM (inactive); in test [10] it was 0.555 µM (active); in test [11], 0.927 µM (active); in test [12], 7.71 µM (inactive). The GI50 in test [13] was 1.01 µM (active); in test [14], 0.53 µM (active); in test [15], 1.16 µM (inactive); in test [16] it was 0.891 µM (active); in test [17], 0.486 µM (active); in test [18] it was 1 µM (active). In addition, the GI50 is 2.09 µM (inactive) in [19] and 4.44 µM (inactive) in test [20].
In the case of `COc1cc(C2c3[nH]c4ccc(F)cc4c3C[C@H]3COC(=O)N23)cc(OC)c1O` (stereo not given in full), the GI50 was 15 µM (inactive) in test [1]; 11.1 µM (inactive) in test [2]; 6.47 µM (inactive) in [3]; 9.46 µM (inactive) in test [4]; 96.6 µM (inactive) in test [5]; 2.29 µM (inactive) in test [6]. Moreover, the GI50 in [7] is 10.7 µM (inactive); in test [8] it was 21.3 µM (inactive); in test [9] it was 16.2 µM (inactive); in test [10] it was 26.2 µM (inactive); in test [11], 12.1 µM (inactive); in test [12], 24 µM (inactive). In addition, the GI50 is 5.43 µM (inactive) in [13]; 4.36 µM (inactive) in [14]; 10.1 µM (inactive) in [15]; 12.1 µM (inactive) in test [16]; 14.8 µM (inactive) in test [17]; 17 µM (inactive) in test [18]. Moreover, the GI50 in [19] was 13.5 µM (inactive); in test [20], 6.65 µM (inactive).
Consider `O=C(O)COc1cc(-c2ccccc2)nc2cc(F)ccc12`, for which the GI50 in test [1], in test [2], in test [3], in test [4], in test [5] and in test [6] was > 100 µM (inactive) each time. For the same compound, the GI50 in [7], in test [8], in test [9], in test [10], in test [11] and in test [12] was > 100 µM (inactive) in each case. In addition, the GI50 in test [13], in [14], in [15], in [16], in [17] and in test [18] was > 100 µM (inactive) each time. Also, the GI50 in test [19] and in [20] was > 100 µM (inactive) in each case.

The values are drawn from ChEMBL document CHEMBL1201862, “PubChem BioAssay data set” (2004).
